Reference: US7811352B2, “Fertilizer compositions and methods of using” (priority 2005, dated 2010)

Assays:
Bermuda grass = assay: Turfgrass quality and color ratings, Bermuda grass golf course fairways (Example 13); format: in vivo; conditions: scale 1-10
Method: In this Example, the effect of a fertilizer comprising lysine on turfgrass growth was examined. The effects of lysine (HCl) and LIQUID LYSINE on a common type of golf course fairway quality turfgrass (Bermuda green) were compared with those of CoRoN® brand fertilizer.
Six fertilizer treatments comprising two concentrations of each fertilizer composition (Coron® (N—P—K, 14-2-14), LIQUID LYSINE (N—P—K, 10-2-1), and lysine (HCl) (N—P—K, 15-2-1)) were prepared and applied to 3 replications of Bermuda grass for use on golf course fairways. The lysine (HCl) was applied as a granular using a Scotts 2 foot drop spreader on a setting of 4.5. The solutions of LIQUID LYSINE and Coran were applied using a Birchmeier backpack sprayer with a 5 foot spray pattern. Each fertilizer treatment was applied in concentrations 3.0 lb N/1000 ft^2 and 6.0 lb N/1000 ft^2. Plot size was 5 ft×60 ft set up as a randomized complete block. Irrigation was applied following application, Plots were rated for turfgrass quality and color (scale of 1-10 where 10=dark green turf 1=dead/brown turf and 6=minimally acceptable turf) and phytotoxicity (% burn) throughout the study period and compared with two untreated plots. […] All data was subject to statistical analysis and significant means were determined.

[1] = test system: rhizomatous tall fescue grass; assay: Turfgrass quality and color ratings, rhizomatous tall fescue (Example 14); format: in vivo; conditions: scale of 1-10
Method: (§1) In this Example, the effect of a fertilizer comprising lysine on turfgrass growth was examined. The effects of lysine (HCl) and LIQUID LYSINE on a common type of lawn quality turfgrass (rhizomatous tall fescue) were compared with those of CoRoN® brand fertilizer.
(§2) Six fertilizer treatments comprising two concentrations of each fertilizer composition (Coron® (N—P—K, 14-2-34), LIQUID LYSINE (N—P—K, 10-2-1), and lysine (HCl) (N—P—K, 15-2-1)) were prepared and applied to 3 replications of rhizomatous tall fescue grass. The solutions of lysine (HCl) (dissolved in 0.5 gal water), LIQUID LYSINE and Coran were applied using a Birchmeier backpack sprayer with a 5 foot spray pattern, Each fertilizer treatment was applied in either a 3-split application with an application rate of 2 lb N/1000 ft^2 or a 6-split application with an application rate of 1 lb N/1000 ft^2. Plot size was 9 ft×9 ft set up as a randomized complete block. Irrigation was applied following application. Plots were rated for turfgrass quality and color (scale of 1-10 where 10=dark green turf, 1 =dead/brown turf, and 6=minimally acceptable turf and phytotoxicity (% burn) throughout the study period and compared with two untreated plots. Quality, color, and phytotoxicity were measured on day 7, day 14, day 21, day 28, day 35, and day 42 after application. All data was subject to statistical analysis and significant means were determined. Average turfgrass quality ratings for the treatments are presented in Table 21. Average turfgrass color ratings are presented in Table 22. Average phytotoxicity ratings (as % burn) are presented in Table 23.

[2] = test system: rhizomatous tall fescue grass; assay: Phytotoxicity (% burn), rhizomatous tall fescue (Example 14); format: in vivo
Method: as §1, §2

[3] = Solubility of L-lysine (HCl) in water; format: physicochemical; conditions: at 25° C., read-out: solubility in H2O
[4] = Rate 3.0 lb N/1000 ft^2, Day 12
[5] = Rate 3.0 lb N/1000 ft^2, Day 19
[6] = Rate 3.0 lb N/1000 ft^2, Day 26
[7] = Rate 3.0 lb N/1000 ft^2, Day 33
[8] = Rate 3.0 lb N/1000 ft^2, Day 40
[9] = Rate 3.0 lb N/1000 ft^2, Day 47
[10] = Rate 6.0 lb N/1000 ft^2, Day 12
[11] = Rate 6.0 lb N/1000 ft^2, Day 19
[12] = Rate 6.0 lb N/1000 ft^2, Day 26
[13] = Rate 6.0 lb N/1000 ft^2, Day 33
[14] = Rate 6.0 lb N/1000 ft^2, Day 40
[15] = Rate 6.0 lb N/1000 ft^2, Day 47
[16] = 3-split, 2.0 lb N/1000 ft^2, Day 7
[17] = 3-split, 2.0 lb N/1000 ft^2, Day 14
[18] = 3-split, 2.0 lb N/1000 ft^2, Day 21
[19] = 3-split, 2.0 lb N/1000 ft^2, Day 28
[20] = 3-split, 2.0 lb N/1000 ft^2, Day 35
[21] = 6-split, 1.0 lb N/1000 ft^2, Day 7
[22] = 6-split, 1.0 lb N/1000 ft^2, Day 14
[23] = 6-split, 1.0 lb N/1000 ft^2, Day 21
[24] = 6-split, 1.0 lb N/1000 ft^2, Day 28
[25] = 6-split, 1.0 lb N/1000 ft^2, Day 35

Cl.NCCCC[C@H](N)C(=O)O [Lys (HCl) 15% N, L-lysine monohydrochloride]
Color Ratings - Bermuda Grass (Bermuda grass; Rate 3.0 lb N/1000 ft^2, Day 7): 5.7ab | Quality Ratings - Bermuda Grass (Bermuda grass; Rate 3.0 lb N/1000 ft^2, Day 7): 6.7a | Color Ratings - Bermuda Grass (Bermuda grass; [4]): 6.0b | Quality Ratings - Bermuda Grass (Bermuda grass; [4]): 7.3ab | Color Ratings - Bermuda Grass (Bermuda grass; [5]): 6.7a | Quality Ratings - Bermuda Grass (Bermuda grass; [5]): 7.3ab | Color Ratings - Bermuda Grass (Bermuda grass; [6]): 7.3a | Quality Ratings - Bermuda Grass (Bermuda grass; [6]): 7.7ab | Color Ratings - Bermuda Grass (Bermuda grass; [7]): 7.7ab | Quality Ratings - Bermuda Grass (Bermuda grass; [7]): 8.0a | Color Ratings - Bermuda Grass (Bermuda grass; [8]): 7.0b | Quality Ratings - Bermuda Grass (Bermuda grass; [8]): 7.0b | Color Ratings - Bermuda Grass (Bermuda grass; [9]): 7.0bc | Quality Ratings - Bermuda Grass (Bermuda grass; [9]): 7.3ab | Color Ratings - Bermuda Grass (Bermuda grass; Rate 6.0 lb N/1000 ft^2, Day 7): 5.3ab | Quality Ratings - Bermuda Grass (Bermuda grass; Rate 6.0 lb N/1000 ft^2, Day 7): 6.7a | Color Ratings - Bermuda Grass (Bermuda grass; [10]): 6.7a | Quality Ratings - Bermuda Grass (Bermuda grass; [10]): 7.3ab | Color Ratings - Bermuda Grass (Bermuda grass; [11]): 7.0a | Quality Ratings - Bermuda Grass (Bermuda grass; [11]): 7.3ab | Color Ratings - Bermuda Grass (Bermuda grass; [12]): 7.7a | Quality Ratings - Bermuda Grass (Bermuda grass; [12]): 7.7ab | Color Ratings - Bermuda Grass (Bermuda grass; [13]): 7.7ab | Quality Ratings - Bermuda Grass (Bermuda grass; [13]): 7.7a | Color Ratings - Bermuda Grass (Bermuda grass; [14]): 7.3ab | Quality Ratings - Bermuda Grass (Bermuda grass; [14]): 7.0b | Color Ratings - Bermuda Grass (Bermuda grass; [15]): 7.3ab | Quality Ratings - Bermuda Grass (Bermuda grass; [15]): 7.7a | Color Ratings - Tall fescue grass [1, 16]: 5.0 days | Quality Ratings - Tall fescue grass [1, 16]: 5.7c | Color Ratings - Tall fescue grass [1, 17]: 6.0b | Quality Ratings - Tall fescue grass [1, 17]: 7.0b | Color Ratings - Tall fescue grass [1, 18]: 7.0bc | Quality Ratings - Tall fescue grass [1, 18]: 7.0b | Color Ratings - Tall fescue grass [1, 19]: 8.0a | Quality Ratings - Tall fescue grass [1, 19]: 8.0a | Color Ratings - Tall fescue grass [1, 20]: 8.0a | Quality Ratings - Tall fescue grass [1, 20]: 8.0a | Color Ratings - Tall fescue grass [1, 21]: 6.0c | Quality Ratings - Tall fescue grass [1, 21]: 6.0c | Color Ratings - Tall fescue grass [1, 22]: 7.0a | Quality Ratings - Tall fescue grass [1, 22]: 7.0b | Color Ratings - Tall fescue grass [1, 23]: 7.0bc | Quality Ratings - Tall fescue grass [1, 23]: 7.7a | Color Ratings - Tall fescue grass [1, 24]: 8.0a | Quality Ratings - Tall fescue grass [1, 24]: 8.0a | Color Ratings - Tall fescue grass [1, 25]: 8.0a | Quality Ratings - Tall fescue grass [1, 25]: 8.0a | Phytotoxicity (% Burn) - Tall fescue grass [2, 16]: 15.0b % | Phytotoxicity (% Burn) - Tall fescue grass [2, 17]: 6.7b % | Phytotoxicity (% Burn) - Tall fescue grass [2, 18]: 1.7b % | Phytotoxicity (% Burn) - Tall fescue grass [2, 19]: 0.0a % | Phytotoxicity (% Burn) - Tall fescue grass [2, 20]: 0.0a % | Phytotoxicity (% Burn) - Tall fescue grass [2, 21]: 10.0c % | Phytotoxicity (% Burn) - Tall fescue grass [2, 22]: 1.7bc % | Phytotoxicity (% Burn) - Tall fescue grass [2, 23]: 0.0b % | Phytotoxicity (% Burn) - Tall fescue grass [2, 24]: 0.0a % | Phytotoxicity (% Burn) - Tall fescue grass [2, 25]: 0.0a % | solubility [3]: 500 to 600 mg/mL
